Measurements reported in paper PMC12494546, “Structural basis of heme scavenging by the ChtA and HtaA hemophores in Corynebacterium diphtheriae” (The Journal of Biological Chemistry, 2025).

How the values were obtained:
[1] = biological target: T1, Y178H (Corynebacterium diphtheriae, UniProt Q6NGJ3, Y178H); test: Isothermal titration calorimetry with apo-protein injected into hemin chloride at 25 °C in 50 mM Tris-HCl pH 8.0, 200 mM NaCl, 5% DMSO, fitted to a one-site binding model.; conditions: SEM, n = 3
T1 construct: gene DIP1520; CR domain, ChtA residues 112-291; N-terminal SUMO/6xHis tag removed by ULP1; apo-form
Source text: (§1) Isothermal titration calorimetry
(§2) Protein samples were equilibrated in titration buffer supplemented with 5% (v/v) DMSO. […] Binding isotherms were fit to a one-site binding model using the program ORIGIN ([91]).

[2] = biological target: T2, K177G (Corynebacterium diphtheriae, UniProt Q6NGJ3, K177G); test: as above; conditions: SEM, n = 3
T2 construct: gene DIP1520; CR domain, ChtA residues 112-291; N-terminal SUMO/6xHis tag removed by ULP1; apo-form
T2 sequence (Q6NGJ3 112-291 K177G): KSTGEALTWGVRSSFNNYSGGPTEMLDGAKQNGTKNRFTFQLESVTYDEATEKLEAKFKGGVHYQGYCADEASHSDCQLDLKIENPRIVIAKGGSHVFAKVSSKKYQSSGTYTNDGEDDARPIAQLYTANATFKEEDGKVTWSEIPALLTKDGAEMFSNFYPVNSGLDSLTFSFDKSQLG
Source text: as §1, §2

[3] = biological target: T3, Y129A (Corynebacterium diphtheriae, UniProt Q6NGJ3, Y129A); test: as above; conditions: n = 3
T3 construct: gene DIP1520; CR domain, ChtA residues 112-291; N-terminal SUMO/6xHis tag removed by ULP1; apo-form
Source text: as §1, §2

[4] = biological target: T4, K177G + Y178H (Corynebacterium diphtheriae, UniProt Q6NGJ3, K177G/Y178H); test: as above; conditions: SEM, n = 3
T4 construct: gene DIP1520; CR domain, ChtA residues 112-291; N-terminal SUMO/6xHis tag removed by ULP1; apo-form
Source text: as §1, §2

[5] = biological target: T5, ChtA^CR (WT) (Corynebacterium diphtheriae, UniProt Q6NGJ3); test: as above; conditions: SEM, n = 3
T5 construct: gene DIP1520; CR domain, ChtA residues 112-291 (K112-G291); N-terminal SUMO/6xHis tag removed by ULP1; apo-form
T5 sequence (Q6NGJ3 entry or part of it): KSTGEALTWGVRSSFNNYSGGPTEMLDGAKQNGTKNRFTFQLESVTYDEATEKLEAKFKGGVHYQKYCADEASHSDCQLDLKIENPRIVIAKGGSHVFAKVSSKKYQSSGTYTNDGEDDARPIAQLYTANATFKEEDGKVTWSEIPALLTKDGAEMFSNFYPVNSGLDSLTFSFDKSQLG
Source text: as §1, §2

[6] = biological target: T6, Y178A (Corynebacterium diphtheriae, UniProt Q6NGJ3, Y178A); test: as above; conditions: SEM, n = 3
T6 construct: gene DIP1520; CR domain, ChtA residues 112-291; N-terminal SUMO/6xHis tag removed by ULP1; apo-form
T6 sequence (Q6NGJ3 112-291 Y178A): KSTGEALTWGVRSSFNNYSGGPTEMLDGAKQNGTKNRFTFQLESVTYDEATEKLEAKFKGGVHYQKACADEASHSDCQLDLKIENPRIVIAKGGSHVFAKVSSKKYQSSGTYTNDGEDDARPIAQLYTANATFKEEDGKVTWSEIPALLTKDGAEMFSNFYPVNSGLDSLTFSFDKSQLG
Source text: as §1, §2

[7] = biological target: T7, HtaA^CR1 (Corynebacterium diphtheriae, UniProt Q6NIZ1); test: Hemin partitioning between pairs of CR domains at equilibrium measured by native nano-ESI-MS in 50 mM ammonium acetate pH 6.9 at 24 °C, with Krel converted to KD using the ITC KD of ChtA^CR as reference.; format: binding; conditions: read-out: estimated KD values for hemin
T7 construct: gene DIP0625; N-terminal CR domain CR1, HtaA residues 36-221 (methods; S37-G214 in results); N-terminal SUMO/6xHis tag removed by ULP1
T7 sequence (Q6NIZ1 entry or part of it): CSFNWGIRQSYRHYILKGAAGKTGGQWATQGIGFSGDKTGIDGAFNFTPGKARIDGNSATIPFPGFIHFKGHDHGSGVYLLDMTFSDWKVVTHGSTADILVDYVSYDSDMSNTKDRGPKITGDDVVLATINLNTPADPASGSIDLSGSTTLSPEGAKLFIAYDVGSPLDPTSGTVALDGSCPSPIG
Source text: (§3) The C. diphtheriae hemin-uptake system contains six CR domains that are located at distinct sites outside the cell (Fig. 1). […] Together, they represent nearly the full complement of C. diphtheriae’s CR domains (only the domains from ChtB and ChtC are missing, but they are expected to have similar binding properties as their paralogs, HtaB and ChtA, respectively). […] Similar measurements were made for the following protein pairs: HtaA^CR2/HtaB^CR, HtaA^CR1/HtaB^CR, HtaA^CR2/HtaA^CR1, ChtA^CR/HtaA^CR2, and ChtA^CR/HtaB^CR (Table S4).
(§4) nESI-MS was used for ligand (heme)-competition experiments between CR domain pairs to determine their relative heme dissociation constant Krelative (Krel) ([37], [56]). In this approach, two different CR domains (e.g. a >90% heme-loaded “heme donor” and a <10% heme-loaded “heme acceptor” CR domain) are mixed and allowed to come to equilibrium (>6 h, 24 °C). The resulting mixture is then analyzed by nESI-MS, where the apo- and holo-abundance of each CR domain is determined from the sum peak intensity from each of their charge states as described previously ([37]). The relative affinity between the CR pair tested can be determined by their nESI-MS abundances according to Equation 1, which is derived from the ratio of each CR’s KD for heme. Importantly, this analysis is independent of [heme] and Krel should be consistent across different concentrations of [heme donor] and [heme acceptor]; thus, we used at least three different holo-donor and apo-acceptor stoichiometry ratios to determine each Krel reported in Table S4.(eq. 1) KRelative=[CR^hemeacceptor][CR^hemedonor·heme]/[CR^hemedonor][CR^hemeacceptor·heme]=Ab(CR^hemeacceptor)Ab(CR^hemedonor·heme)/Ab(CR^hemedonor)Ab(CR^hemeacceptor·heme)
(§5) For nESI-MS heme-competition experiments, CR domains were first buffer-exchanged into 50 mM ammonium acetate (pH 6.9) using dialysis or gel filtration and protein concentration was determined by bicinchoninic acid assay or UV-visible absorbance at 280 nm. […]

[8] = biological target: T8, HtaA^CR2 (Corynebacterium diphtheriae, UniProt Q6NIZ1); test: as above; format: binding; conditions: read-out: estimated KD values for hemin
T8 construct: gene DIP0625; C-terminal CR domain CR2, HtaA residues 344-506 (G344-G506); N-terminal SUMO/6xHis tag removed by ULP1
T8 sequence (Q6NIZ1 entry or part of it): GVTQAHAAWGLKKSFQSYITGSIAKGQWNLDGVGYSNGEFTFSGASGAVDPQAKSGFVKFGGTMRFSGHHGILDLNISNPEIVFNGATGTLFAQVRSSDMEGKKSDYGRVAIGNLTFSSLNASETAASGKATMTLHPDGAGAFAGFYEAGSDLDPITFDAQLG
Source text: as §3, §4, §5

[9] = biological target: T9, HtaB^CR (Corynebacterium diphtheriae, UniProt Q6NIY7); test: as above; format: binding; conditions: read-out: estimated KD values for hemin
T9 construct: gene DIP0629; CR domain, HtaB residues 30-273; N-terminal SUMO/6xHis tag removed by ULP1
T9 sequence (Q6NIY7 entry or part of it): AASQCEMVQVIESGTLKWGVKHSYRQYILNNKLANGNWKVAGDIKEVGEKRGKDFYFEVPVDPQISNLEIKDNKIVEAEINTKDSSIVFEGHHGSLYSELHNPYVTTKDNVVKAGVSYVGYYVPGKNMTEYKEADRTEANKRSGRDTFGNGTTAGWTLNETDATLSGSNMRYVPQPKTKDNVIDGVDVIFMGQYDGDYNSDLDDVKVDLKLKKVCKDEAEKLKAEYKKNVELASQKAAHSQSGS
Source text: as §3, §4, §5

C=CC1=C(C)c2cc3[nH]c(cc4nc(cc5[nH]c(cc1n2)c(C)c5CCC(=O)O)C(CCC(=O)O)=C4C)c(C)c3C=C.[Fe+3] [hemin, ferric heme (iron(III)-protoporphyrin IX; used as hemin chloride)]
Kd [1]: 54.8 ± 1.9 nM
Kd [2]: 23.6 ± 0.8 nM
Kd [3]: > 500 nM
Kd [4]: 27.1 ± 9 nM
Kd [5]: 22.4 ± 5.3 nM
Kd [6]: 46.6 ± 9.6 nM
Kd [7]: 1.1 nM
Kd [8]: 0.85 nM
Kd [9]: 5.4 nM
